{"source": "patent US20060013822A1", "about": "“Utilization of mhc class II binding motifs in immunization to produce immune, serum, monoclonal antibodies and vaccines” (priority 2002, published 2006)", "key": {"C57B1/6J mice": {"tested_on": "C57B1/6J mice", "assay": "Antibody response in sera of immunized C57B1/6J mice, fluorescence ELISA for anti-TR3 binding antibodies", "assay_type": "in vivo, mouse", "conditions": "immune sera collected after four weeks", "experimental": "C57B1/6J mice were immunized with the native TR3 peptide 1-32 or with an altered TR3 sequence that contains a Threonine (T) to Phenylalanine (F) alteration at amino acid position 4 to introduce a known C57B1/6J MHC Class II binding motif. Immune sera were collected after four weeks and assessed for anti-TR3 binding antibodies by fluorescence ELISA.\n(§1) The serum from rats immunized with TR3 peptide 1-32 were tested in a standard ELISA for epitope specificity. The protocol for ELISA has been described previously in (Tittle, Molecular Immunology 26:343-350, 1989), except that the substrate (methylumbelliferyl phosphate, MUP, Sigma-Aldrich, St. Louis, Mo.) was read fluorometrically rather than calorimetrically as with NPP (Nitrophenyl phosphate).\nA T to F change in the sequence of TR3 at AA4 an H-2^b binding motif was generated and C57B1/6J mice were immunized with the native TR3 peptide or with the T-F variant peptide."}, "[1]": {"tested_on": "Lymph node T cells from TR3 peptide 1-13 immune animals", "assay": "Standard T cell proliferation assay (3H-thymidine incorporation)", "assay_type": "cell-based, Lewis rat", "conditions": "T cells from TR3 peptide 1-13 immune Lewis rats with antigen presenting cells; after 48 hours in culture, 18 hour period", "experimental": "Lymph node T cells from TR3 peptide 1-13 immune animals were cultured in the presence of antigen presenting cells and either TR3 peptide 1-13 or TR3 peptide 14-32. ^3H-thymidine incorporation was assessed after 48 hours in culture for an 18 hour period. The T cells responded in this standard T cell proliferation assay to TR3 peptide 1-13 but not to TR3 peptide 14-32. […] This implies that the missing component is a B cell epitope.\n(§2) Two peptides were synthesized, TR3 peptide 1-13 and TR3 peptide 1-32. Both contain the binding motif but only one was long enough to have a portion hanging outside of the MHC Class II binding cleft. Lewis rats were immunized with one or the other of these peptides and sera tested for the presence of antibodies that would recognize the TR31-32 peptide before and after immunization."}, "Lewis rats": {"tested_on": "Lewis rats", "assay": "Antibody response in sera of immunized Lewis rats, fluorescence ELISA on TR3 peptide coated plates", "assay_type": "in vivo, Lewis rat", "conditions": "bled after six weeks; for antibody titer against TR3 peptide 1-32 in sera of rats immunized with the peptide: TR31-32 coated plates, before and after immunization", "experimental": "Rats were immunized and rested for four weeks. Immune sera were assayed at 1:5000 and compared to pre-immune titers by fluorescence ELISA (see below) using TR3 peptide 1-32 coated plates.\nLewis rats were immunized with TR3 peptide 1-13 and after six weeks the animals were bled and sera tested for binding to TR31-13 or TR31-32 coated plates using fluorescence ELISA.\nas §2, §1"}}, "note": "Entries after “also recorded” stand apart in the source; their conditions may differ."}
{"substance": "QGGFRSPRCDCAGDFHKKIGLFCCRGCPAGHY (Altered TR3 peptide with MHC class II binding motif from amino acids 4 through 12.; listed as Homo sapiens)", "values": [{"measurement": "detectable anti-TR3 binding antibodies in immune sera of mice immunized with the peptide", "setting": "C57B1/6J mice", "result": "made an anti-TR3 response"}, {"measurement": "detectable anti-TR3 binding antibodies in immune sera of mice immunized with the peptide", "setting": "C57B1/6J mice; listed as T-F variant peptide", "result": "immunogenic and induced an antibody response"}]}
{"substance": "QGGTRSPRCDCAG (MEQRPRGCAAVAA) [TR3 peptide 1-13]", "values": [{"measurement": "T cell proliferative response to the peptide in culture (3H-thymidine incorporation)", "setting": "[1]", "result": "very strong T cell responses; also recorded: good T-cell response"}, {"measurement": "antibody titer against TR3 peptide 1-13 in sera of rats immunized with the peptide", "setting": "Lewis rats; TR31-13 coated plates", "result": "No detectable antibody"}, {"measurement": "antibody titer against TR3 peptide 1-32 in sera of rats immunized with the peptide", "setting": "Lewis rats", "result": "No detectable antibody"}, {"measurement": "antibody titer against TR3 peptide 1-32 in sera of rats immunized with the peptide", "setting": "Lewis rats; listed as TR3 peptide", "result": "no appreciable antibody titer"}]}
{"substance": "TR3 peptide 14-32: amino acids 14-32 of the TR-3 peptide, extended peptide shown to be the B cell epitope (ALLLVLLGARAQGGTRSPR)", "values": [{"measurement": "T cell proliferative response to the peptide in culture (3H-thymidine incorporation)", "setting": "[1]", "result": "not"}]}
